According to patent US20230201285A1, “GRANULAR C[…] WATER DISPERSIBLE CANNABINOIDS AND METHODS OF MAKING THE SAME” (priority 2021, published 2023):

Assay: Emulsion formation of CBD powder in water with emulsifier or co-solvent
Type: physicochemical
Settings: 200 mg CBD powder, 40 mL water, shaken five minutes
Experimental: A study was conducted with several different emulsifiers or co-solvents added to water and CBD powder.
In a first experiment, five 50 mL centrifuge tubes were each filled with 40 mL of water and 200 mg of CBD powder. Then, increasing amounts of PEG-400 (65 mg, 130 mg, 195 mg, 260 mg, and 650 mg) were added respectively to each centrifuge tube, which were then placed on a tabletop shaker and mechanically shaken on high for five minutes. […] No emulsion, however, was immediately formed after mixing.
In a second experiment, four 50 mL centrifuge tubes were each filled with 40 mL of water and 200 mg of CBD powder. Then, increasing amounts of TWEEN 80 (160 mg, 320 mg, 800 mg, and 1600 mg) were added respectively to each centrifuge tube, which were then placed on a tabletop shaker and mechanically shaken on high for five minutes. […] Further, CBD powder was still floating around in each tube.
(§1) In a third experiment, four 50 mL centrifuge tubes were each filled with 40 mL of water and 200 mg of CBD powder. Then, increasing amounts of sodium dodecyl sulfate (SDS) (10 mg, 25 mg, 50 mg, and 100 mg) were added respectively to each centrifuge tube, which were then placed on a tabletop shaker and mechanically shaken on high for five minutes. […] Further, CBD residue was observed on the bottom of each tube.
as §1, with “Finally, in” for “In”, “fourth” for “third”, “glycerol monostearate (GMS)” for “sodium dodecyl sulfate (SDS)”, “bottom and sides” for “bottom”

Question: Which results are given for `C=C(C)[C@@H]1CCC(C)=C[C@H]1c1c(O)cc(CCCCC)cc1O` [CBD powder, cannabidiol]?
Answer: emulsion formation (GMS 10-100 mg): no emulsion was formed in any tube; emulsion formation (PEG-400 65-650 mg): No emulsion; emulsion formation (SDS 10-100 mg): no emulsion was formed in any tube; emulsion formation (TWEEN 80 160-1600 mg): no emulsion was formed in any tube
